One assay relates to EGFR. As to the kind of experiment: Western blot of EGFR protein expression in glioblastoma cell line. Format: cell-based, human. Conditions: U87-MG, 48 hours; for expression of EGFR protein compared to the untreated control: 0, 8, 16, 32 μM, FIGS. 9A to 9D. As for the experimental part: (§1) It was determined whether the compound of the present invention affects the expression of ANO1 and EGFR proteins in a glioblastoma cell line. The human glioblastoma cell line U87-MG was seeded at a density of 1×10^6 cells in a 60 mm dish, and cultured for 24 hours, and the cells were then treated with the compound (AON-MG23-01 or AON-MG23-02; each at 0, 1, 2, and 4 μM) of the present invention, and cultured for 48 hours. The cultured cells were harvested and the harvested cells were lysed for Western blotting. An anti-ANO1 antibody (Abcam, ab53212), an anti-pEGFR antibody (Cell Signaling, #4407S), an anti-EGFR antibody (Cell Signaling, #4267S), and an anti-α-tubulin antibody (Santacruz, #SC-5286) were used as the antibodies for Western blotting. Protein concentration was quantified using the BSA method (a protein quantitation assay, a bovine serum albumin assay) (Pierce, Cat. 23225). After the cells were lysed, an equal amount (10 μg) of the proteins obtained from the lysed cells was subjected to 10% SDS-PAGE to separate the proteins depending on their molecular weights, transferred to a PVDF membrane (Bio-Rad), and then treated with a blocking buffer (5% skim milk in a Tris-buffered saline (TBS) buffer containing 0.1% Tween 20; TBS-T) at room temperature for an hour. Thereafter, the PVDF membrane was treated with the primary antibody, and reacted at 4° C. for 16 hours. […] The amount of each protein was quantified and analyzed using Image J software.
(§2) The inhibitory effects of the compound AON-MG23-02 of the present invention, the EGFR inhibitor Osimertinib, and the ANO1 inhibitor CaCCinh-A01 on the expression of ANO1, EGFR, and pEGFR proteins in a glioblastoma cell line were compared. […] Protein concentration was quantified using the BSA method (a protein quantitation assay, a bovine serum albumin assay) (Pierce, Cat. 23225). […] The amount of each protein was quantified and analyzed using Image J software. […]

Assay [1] deals with U87-MG cells. As to the kind of experiment: Matrigel Transwell invasion assay (metastasis inhibition). The conditions noted are these: for degree of penetration into Matrigel compared to the untreated control: 24 hours. Format: cell-based, human. The procedure: A human glioblastoma cell line U87-MG was seeded at a density of 8×10^4 cells/well on Matrigel-coated filters (Transwell invasion chambers, Corning), and the cells were then treated with the compound (AON-MG23-01 or AON-MG23-02; each at 0, 1, 2, and 4 μM) of the present invention, and cultured at 37° C. in a CO2 incubator for 24 hours. After the culturing was completed, the cells were fixed and stained using the Diff-Quick Stain kit (Sysmex, Kobe, Japan). Images of the stained cells were taken under a microscope, the cells were counted using Image J software, and statistical analysis was then performed.
A human glioblastoma cell line U87-MG was seeded at a density of 6×10^4 cells/well on the top of a Matrigel-coated filter (Transwell invasion chambers, Corning), treated with 4 μM of the compound AON-MG23-02 of the present invention, 4 μM of the EGFR inhibitor Osimertinib, 100 μM of the ANO1 inhibitor CaCCinh-A01, or a combination of 4 μM of Osimertinib and 100 μM of CaCCinh-A01, and then cultured at 37° C. in a CO2 incubator for 16 hours. After the culturing was completed, the cells were fixed and stained using a Diff-Quick stain kit (Sysmex, Kobe, Japan). Images of the stained cells were taken under a microscope, the cells were counted using Image J software, and statistical analysis was then performed.
A human glioblastoma cell line U87-MG was seeded at a density of 8×10^4 cells/well on the top of a Matrigel-coated filter (Transwell invasion chambers, Corning), and then treated with 0, 8, 16, and 32 μM of each of the compound derivatives AON-MG23-05, AON-MG23-06, AON-MG23-07, and AON-MG23-08 of the present invention, and cultured at 37° C. in a CO2 incubator for 24 hours. After the culturing was completed, the cells were fixed and stained using a Diff-Quick stain kit (Sysmex, Kobe, Japan). Images of the stained cells were taken under a microscope, the cells were counted using Image J software, and statistical analysis was then performed.

For another assay, the system named is ANO1. Kind of assay: Western blot of ANO1 protein expression in glioblastoma cell line. The class given is cell-based, human. The conditions noted are these: U87-MG, 48 hours; for expression of ANO1 protein compared to the untreated control: 0, 8, 16, 32 μM, FIGS. 9A to 9D. As for the experimental part: as §1, §2
Background: In western blotting, separated proteins are transferred to a membrane and probed.

Assay [2] has as its system U87-MG cells. As to the kind of experiment: Cell migration assay (SPLScar Block). Format: cell-based. The conditions noted are these: Homo sapiens, U-87 MG, 24 hours, FIG. 3, read-out: inhibition of cell migration compared to the untreated control. As for the experimental part:
Human glioblastoma cell line U87-MG cells were seeded at a density of 8×10^4 cells/well on a SPLScar Block (SPL) plate and cultured for 24 hours. After 24 hours, the block was removed, and the cells were treated with the compound AON-MG23-01 or AON-MG23-02 of the present invention, and cultured at 37° C. in a CO2 incubator for 24 hours. The compound of the present invention was treated at concentrations of 0, 1, 2, and 4 μM. Images were taken before and after culture, and the distance of cell migration was measured using Image J software. Based on the results, whether the cell migration was inhibited was analyzed.

A further assay relates to pEGFR. As to the kind of experiment: Western blot of pEGFR protein expression in glioblastoma cell line. The class given is cell-based, human. The conditions noted are these: U87-MG; 4 μM; 48 hours; vs 2 μM Osimertinib, 100 μM CaCCinh-A01, combination; FIGS. 8A, 8B. The procedure:
The inhibitory effects of the compound AON-MG23-02 of the present invention, the EGFR inhibitor Osimertinib, and the ANO1 inhibitor CaCCinh-A01 on the expression of ANO1, EGFR, and pEGFR proteins in a glioblastoma cell line were compared. A human glioblastoma cell line U87-MG was seeded at a density of 100×10^4 cells/dish in a 60 mm dish, and cultured for 24 hours. Thereafter, the cells were treated with 4 μM of AON-MG23-02, 2 μM of the EGFR inhibitor Osimertinib, 100 μM of the ANO1 inhibitor CaCCinh-A01, or a combination of 2 μM of Osimertinib and 100 μM of CaCCinh-A01, and cultured for 48 hours. The cultured cells were harvested and the harvested cells were lysed for Western blotting. An anti-ANO1 antibody (Abcam, ab53212), an anti-pEGFR antibody (Cell Signaling, #4407S), an anti-EGFR antibody (Cell Signaling, #4267S), and an anti-ACTIN antibody (sigma, #A2066) were used as antibodies for Western blotting. Protein concentration was quantified using the BSA method (a protein quantitation assay, a bovine serum albumin assay) (Pierce, Cat. 23225). […] The amount of each protein was quantified and analyzed using Image J software.

Assay [3] deals with U87-MG cells. Kind of assay: CCK assay, cell proliferation of human glioblastoma cells. The conditions noted are these: 0, 1, 2, 4 μM, 48 hours, FIG. 2. The class given is cell-based. The procedure: Human glioblastoma cell line U87-MG cells were seeded at a density of 1×10^4 cells/well in a 96-well plate and cultured for 24 hours. Thereafter, the cells were treated with DMSO as a control and the compound AON-MG23-01 or AON-MG23-02 of the present invention, and then cultured for 48 hours. The compound of the present invention was treated at various concentrations of 0, 1, 2, and 4 μM. 10 μL of a CCK reagent was added and reacted for an hour, and the absorbance was then measured at 450 nm.

The mark [4] stands for this setting: 0, 8, 16, 32 μM, FIGS. 10A, 10B.
Where [5] appears, read: 4 μM, vs 2 μM Osimertinib, 100 μM CaCCinh-A01, combination, FIGS. 8A, 8B.

With `NC(=O)N(CCc1ccc(CN2Cc3ccccc3C2=O)cc1)Cc1ccc2ccccc2c1` [AON-MG23-08, 1-(naphthalen-2-ylmethyl)-1-(4-((1-oxoisoindolin-2-yl)methyl)phenethyl)urea], in the assay on EGFR, the “expression of EGFR protein compared to the untreated control” value is listed as “reduced expression”. Besides, the “degree of penetration into Matrigel compared to the untreated control” value (“degree … compared to the untreated control” below) in the assay on U87-MG cells [1] (setting [4]) is “reduced degree of penetration into Matrigel”. The “expression of ANO1 protein compared to the untreated control” value in the assay with ANO1 was “reduced expression”.

For `O=C1c2ccccc2CN1Cc1ccc(CCP(=O)(Cc2ccc3ccccc3c2)Cc2ccc3ccccc3c2)cc1` [AON-MG23-07, 2-(4-(2-(bis(naphthalen-2-ylmethyl)phosphoryl)ethyl)benzyl)isoindolin-1-one], the “degree … compared to the untreated control” value in the assay with U87-MG cells [1] (setting [4]) was “reduced degree of penetration into Matrigel”.

In the case of `COc1cc(N2CCC(N(C)C)CC2)ccc1Nc1ncc(Cl)c(Nc2ccccc2N(C2CC2)S(C)(=O)=O)n1` [AON-MG23-02, N-(2-((5-chloro-2-((4-(4-(dimethylamino)piperidin-1-yl)-2-methoxyphenyl)amino)pyrimidin-4-yl)amino)phenyl)-N-cyclopropylmethanesulfonamide], the inhibition at 4 µM in the assay on U87-MG cells [2] was above 65%. In addition, the “expression of EGFR protein compared to untreated control, EGFR inhibitor, ANO1 inhibitor and combination groups” value in the assay on EGFR (setting [5]) is given as “reduces the expression”. Besides, the “expression of pEGFR protein compared to untreated control, EGFR inhibitor, ANO1 inhibitor and combination groups” value in the assay on pEGFR was “reduces the expression”. In addition, the “degree … compared to the untreated control” value with U87-MG cells [1] (0, 1, 2, 4 μM, FIG. 4) is “reduced degree of penetration into Matrigel”. The “degree of penetration into Matrigel compared to untreated control, EGFR inhibitor-treated group and ANO1 inhibitor-treated group” value in the assay on U87-MG cells [1] (4 μM, 16 hours, vs 4 μM Osimertinib, 100 μM CaCCinh-A01, FIGS. 7A, 7B) is given as “reduced degree of penetration into Matrigel”. Moreover, the “proliferation of U87-MG cells (CCK assay)” value with U87-MG cells [3] was “inhibits the proliferation of U87-MG cells”. For the same compound, in the assay with ANO1 (setting [5]), the “expression of ANO1 protein compared to untreated control, EGFR inhibitor, ANO1 inhibitor and combination groups” value is listed as “reduces the expression”.

Turning to `COc1cc(N2CCC(N3CCN(C)CC3)CC2)ccc1Nc1ncc(Cl)c(Nc2ccccc2N(C2CC2)S(C)(=O)=O)n1` [AON-MG23-01, N-(2-((5-chloro-2-((2-methoxy-4-(4-(4-methylpiperazin-1-yl)piperidin-1-yl)phenyl)amino)pyrimidin-4-yl)amino)phenyl)-N-cyclopropylmethanesulfonamide], the inhibition at 4 µM in the assay with U87-MG cells [2] is above 65%. Moreover, the “degree … compared to the untreated control” value in the assay on U87-MG cells [1] (0, 1, 2, 4 μM, FIG. 4) is reported as “reduced degree of penetration into Matrigel”. Further, the “proliferation of U87-MG cells (CCK assay)” value in the assay on U87-MG cells [3] is on record as “inhibits the proliferation of U87-MG cells”.

With `O=C1c2ccccc2CN1Cc1ccc(CCN(CCO)Cc2ccc3ccccc3c2)cc1` [AON-MG23-05, 2-(4-(2-((2-hydroxyethyl)(naphthalen-2-ylmethyl)amino)ethyl)benzyl)isoindolin-1-one], the “expression of EGFR protein compared to the untreated control” value with EGFR is “reduced expression”. Also, in the assay on U87-MG cells [1] (setting [4]), the “degree … compared to the untreated control” value is “reduced degree of penetration into Matrigel”. In the assay on ANO1, the “expression of ANO1 protein compared to the untreated control” value is “reduced expression”.

`CCN(Cc1ccc2ccccc2c1)CC(O)c1ccc(CN2Cc3ccccc3C2=O)cc1` (stereo not drawn) [AON-MG23-06, 2-(4-(2-(ethyl(naphthalen-2-ylmethyl)amino)-1-hydroxyethyl)benzyl)isoindolin-1-one]: the “degree … compared to the untreated control” value in the assay on U87-MG cells [1] (setting [4]) was “reduced degree of penetration into Matrigel”.

The values above are taken from patent publication US20260256816A1, “PHARMACEUTICAL COMPOSITION FOR PREVENTING OR TREATING BRAIN TUMOR” (ASTRION INC., priority 2023, published 2026).
